Assays:
[1] = system: diabetic nephropathy model mice; assay: Urine volume (24 h, metabolic cage); assay type: in vivo, Male db/db mice; details: 16 weeks old, 24 h urine
[2] = system: diabetic nephropathy model mice; assay: Tubular regeneration score (HE-stained kidney); assay type: in vivo, Male db/db mice; details: 16 weeks old, score 0 to 4
[3] = system: diabetic nephropathy model mice; assay: Serum creatinine; details: 16 weeks old
[4] = Body weight in diabetic nephropathy model mice; assay type: in vivo, Male db/db mice; details: 30 mg/kg i.p. once every two days for 10 weeks; 16 weeks old
[5] = system: diabetic nephropathy model mice; assay: Blood glucose level in diabetic nephropathy model mice; assay type: in vivo, Male db/db mice; details: 30 mg/kg i.p. once every two days for 10 weeks; 16 weeks old
[6] = system: diabetic nephropathy model mice; assay: Urinary albumin; details: 30 mg/kg i.p. once every two days for 10 weeks; 16 weeks old
[7] = system: streptozotocin-induced diabetic mice; assay: Blood glucose level (BS) in streptozotocin-induced diabetic mice; assay type: in vivo, C57BL/6J male mice; details: 30 mg/kg i.p. once a day
Description: 9-week-old C57BL/6J male mice were purchased and familiarized with an animal facility for 1 week. 200 mg/kg of streptozotocin (streptozotocin; STZ) was administered […] into the peritoneal cavity of 10-week-old mice to prepare streptozotocin-induced diabetic mice (hereinafter also referred to as “STZ administration week 0”). One week after the administration of streptozotocin, blood was collected from the tail vein of the mice, and the blood glucose level (BS) was measured using an automatic blood glucose measuring device (product name: Medisafe (trademark) Mini GR-102, made by Terumo (Co)). Mice having a blood glucose level of 400 mg/dL or more were determined to be diabetic mice.
The SMTP-44D groups, the edaravone group, and the pregabalin group were administered SMTP-44D (0.3 mg/kg, 3 mg/kg, or 30 mg/kg doses, respectively), edaravone (10 mg/kg dose), or pregabalin (10 mg/kg dose) into the peritoneal cavity once a day for 3 consecutive weeks from the day following the first week to the fourth week after STZ administration.
For the above-mentioned STZ group, SMTP-44D groups, edaravone group, pregabalin group, and control group mice, the following measurements were conducted every week from the 0th week, which began on the day when streptozotocin (STZ) was administered, to the 4th week (that is, a total of five times). As algesia tests, the following von Frey test and hot plate test were conducted, and hind plantar blood flow, body weight (BW), and blood glucose level (BS) were measured using the above-mentioned automatic blood glucose measure device. Note, for example, the 0th week represents the 0th day. That is, the measurements were conducted on the 0th, 7th, 14th, 21st, and 28th days.

[8] = 300 mg/kg orally once every two days for 10 weeks
[9] = 30 mg/kg i.p. once every two days for 10 weeks

## CN(C)C(=N)N=C(N)N [metformin]
[1]; [8]
  Urine volume: 1678.3 ± 250.4 µL
[2]; [8]
  Tubular regeneration score: 0.5±0.2 pts
[3]; [8]
  Serum creatinine: 0.6 ± 0.0 mg/dL

## CC(C)=CCC/C(C)=C/CCC1(C)Oc2c(c(O)cc3c2CN(c2cc(C(=O)O)ccc2O)C3=O)CC1O (centres unmarked) [SMTP-27]
[4]
  Body weight compared to the DN group: No significant changes
[5]
  Blood glucose levels compared to the DN group: No significant changes
[1]; [9]
  Urine volume: 1659.2 ± 270.2 µL
[2]; [9]
  Tubular regeneration score: 0.0±0.0 pts
[6]
  Urinary albumin: 0.3 ± 0.1 mg/h/kg
[3]; [9]
  Serum creatinine: 0.4 ± 0.1 mg/dL

## CC(C)=CCC/C(C)=C/CCC1(C)Oc2c(c(O)cc3c2CN([C@H](Cc2ccccc2)C(=O)O)C3=O)CC1O (some centres unmarked) [SMTP-4D]
[7]; 0th week (before dosing)
  BS (blood glucose level): 203.5 ± 5.5 mg/dL
[7]; 1st week (before dosing)
  BS (blood glucose level): 535.5 ± 28.7 mg/dL
[7]; 2nd week
  BS (blood glucose level): 597.3 ± 44.8 mg/dL
[7]; 3rd week
  BS (blood glucose level): 638.7 ± 34.2 mg/dL
[7]; 4th week
  BS (blood glucose level): 580.3 ± 42.9 mg/dL
